The record followed here is patent publication US20090054392A1, “NAPHTHYLPYRIMIDINE, NAPHTHYLPYRAZINE AND NAPHTHYLPYRIDAZINE ANALOGS AND THEIR USE AS AGONISTS OF THE WNT-BETA-CATENIN CELLULAR MESSAGING SYSTEM” (Wyeth, priority 2007, published 2009).

This series has as its system Dkk1-LRP5-TCF-Luciferase. Nature of the series: Functional Dkk1-LRP5-TCF-Luciferase Assay in U2OS Cells. The conditions noted are these: for fold induction at 2 µM / fold induction at 20 µM / EC50: Homo sapiens, U2OS; for fold induction at 2 µM: read-out: B = TCF ACTIVITY/DMSO CONTROL Fold induction @ 2.0 uM, 2.0 uM compound; for fold induction at 20 µM: read-out: C = TCF ACTIVITY/DMSO CONTROL Fold induction @ 20.0 uM, 20.0 uM compound; for A = MAX FOLD Induction/DMSO CONTROL: maximum fold induction over DMSO control.

Regarding `c1ccc2cc(-c3ccnc(NCC4CNC4)n3)ccc2c1` [N-(azetidin-3-ylmethyl)-4-(2-naphthyl)pyrimidin-2-amine], the fold induction at 2 µM was determined as 1.46, the fold induction at 20 µM is 1.15 and the “A = MAX FOLD Induction/DMSO CONTROL” value came to 3.140 fold.

Take `CCC(C)Nc1nccc(-c2ccc3ccccc3c2)n1` (stereo not drawn) [N-(sec-butyl)-4-(2-naphthyl)pyrimidin-2-amine]: the fold induction at 2 µM amounted to 1.01 and the fold induction at 20 µM was found to be 1.34.

Turning to `CC(C)(C)Nc1nccc(-c2ccc3ccccc3c2)n1` [N-(tert-butyl)-4-(2-naphthyl)pyrimidin-2-amine], the fold induction at 2 µM was 1.75.

One may read the EC50 as the concentration at which the effect is half-maximal. High values mean a less potent agent, low ones a more potent agent. Regarding `CC(=O)N[C@H]1CC[C@H](Nc2nccc(-c3ccc4ccccc4c3)n2)CC1` [N-(trans-4-{[4-(2-naphthyl)pyrimidin-2-yl]amino}cyclohexyl)acetamide], a half-maximal effect (EC50) was put at 18.9 µM, the fold induction at 2 µM is 1.9, the fold induction at 20 µM was 3.2 and the “A = MAX FOLD Induction/DMSO CONTROL” value is recorded as 3.695 fold.

As to `CS(=O)(=O)N[C@H]1CC[C@H](Nc2nccc(-c3ccc4ccccc4c3)n2)CC1` [N-(trans-4-{[4-(2-naphthyl)pyrimidin-2-yl]amino}cyclohexyl)methanesulfonamide], the response was half-maximal at 3.3 µM (EC50), the fold induction at 2 µM is 1.79, the fold induction at 20 µM was determined as 2.38 and the “A = MAX FOLD Induction/DMSO CONTROL” value is 2.940 fold.

`CC(=O)NCC1CN(c2nccc(-c3ccc4ccccc4c3)n2)C1` [N-({1-[4-(2-naphthyl)pyrimidin-2-yl]azetidin-3-yl}methyl)acetamide]: the fold induction at 2 µM was determined as 0.69 and the fold induction at 20 µM worked out at 1.76.

`CS(=O)(=O)NCC1CN(c2nccc(-c3ccc4ccccc4c3)n2)C1` [N-({1-[4-(2-naphthyl)pyrimidin-2-yl]azetidin-3-yl}methyl)methanesulfonamide]: the fold induction at 2 µM was found to be 1.1 and the fold induction at 20 µM turned out to be 1.38.

For `NC(=O)NCC1CN(c2nccc(-c3ccc4ccccc4c3)n2)C1` [N-({1-[4-(2-naphthyl)pyrimidin-2-yl]azetidin-3-yl}methyl)urea], the fold induction at 2 µM was determined as 1.46 and the fold induction at 20 µM turned out to be 1.64.

Consider `CC(=O)NCC1CCN(c2nccc(-c3ccc4ccccc4c3)n2)CC1` [N-({1-[4-(2-naphthyl)pyrimidin-2-yl]piperidin-4-yl}methyl)acetamide], for which the 50% effective concentration (EC50) is 1.9 µM, the fold induction at 2 µM was determined as 1.63, the fold induction at 20 µM was 2.71 and the “A = MAX FOLD Induction/DMSO CONTROL” value is given as 2.273 fold. In addition, the “C = TCF ACTIVITY/DMSO CONTROL Fold induction @ 20.0 uM” value (20.0 uM compound, 20 µM) was found to be 2.500 fold.

As to `O=C(NCC1CCN(c2nccc(-c3ccc4ccccc4c3)n2)CC1)c1ccccc1` [N-({1-[4-(2-naphthyl)pyrimidin-2-yl]piperidin-4-yl}methyl)benzamide], the fold induction at 2 µM came out at 1.69.

Regarding `CCNCC1CCN(c2nccc(-c3ccc4ccccc4c3)n2)CC1` [N-({1-[4-(2-naphthyl)pyrimidin-2-yl]piperidin-4-yl}methyl)ethanamine], the EC50 worked out at 3.3 µM, the fold induction at 2 µM is 1.33, the fold induction at 20 µM amounted to 0.01 and the “A = MAX FOLD Induction/DMSO CONTROL” value was 4.200 fold.

With `N=C(N)NCC1CCN(c2nccc(-c3ccc4ccccc4c3)n2)CC1` [N-({1-[4-(2-naphthyl)pyrimidin-2-yl]piperidin-4-yl}methyl)guanidine], the fold induction at 2 µM was 1.27 and the fold induction at 20 µM is 0.02.

`CS(=O)(=O)NCC1CCN(c2nccc(-c3ccc4ccccc4c3)n2)CC1` [N-({1-[4-(2-naphthyl)pyrimidin-2-yl]piperidin-4-yl}methyl)methanesulfonamide]: the fold induction at 2 µM is 1.12 and the fold induction at 20 µM is 0.48.

`c1cnc(NCC2CCN(c3nccc(-c4ccc5ccccc5c4)n3)CC2)nc1` [N-({1-[4-(2-naphthyl)pyrimidin-2-yl]piperidin-4-yl}methyl)pyrimidin-2-amine]: the fold induction at 2 µM came out at 1.28 and the fold induction at 20 µM stood at 1.48.
